Five compounds from patent US8697158B2, “Mineral amino acid polysaccharide complex” (Melaleuca, Inc., priority 2008, dated 2014) can be followed below.

Series [1] in a line: Hydroxyl radical formation (EPR, DMPO spin trapping). As to conditions: metal 800 μM, DMPO 18.7 mM, H2O2 61 mM, HEPES pH 7.2; relative to AAC. The protocol:
The rate of hydroxyl radical formation catalyzed by a complex comprising an iron- or copper-amino acid inulin complex was compared to the iron- or copper-amino acid compound alone.
Mineral (Cu or Fe) was dissolved in 10 mM HEPES buffer (pH 7.2) containing DMPO. Iron and copper were used in the form of amino acid compounds (i.e., glycinates; AAC) and as amino acid inulin complexes (1:9 w/w; AAC/OF). Hydrogen peroxide was added 90 seconds prior to measurement.
The spin trapping reagent—5,5-dimethylpyrroline-N-oxide (DMPO) was used for monitoring hydroxyl radical.
The relative signal amplitudes for DMPO/hydroxyl radical adduct, which can be correlated to the concentration of hydroxyl radical present in the solution, was measured (Table 3).

A short description of series [2]: Ascorbyl radical kinetics (EPR), iron-catalyzed ascorbic oxidation. As to conditions: for relative amplitude of the ascorbyl radical signal: iron solution 0.9 mM, ascorbic acid 4.04 mM, HEPES pH 7.2. The protocol:
Samples of iron(II) sulfate, iron(II) bis-glycinate (FeAAC), and an iron(II) bis-glycinate inulin complex (FeAAC/OF; ratio 1:10 w/w) were analyzed using EPR spectroscopy to determine their ability to generate the ascorbate radical, i.e. to catalyze ascorbic oxidation. The samples were dissolved in 10 mM HEPES buffer (pH 7.2) to a final concentration 0.9 mM of iron.
The iron solutions were mixed with the ascorbic acid solution, and the mixture was transferred into capillary tubes for measurement. Multiple readings were performed over 30 minutes.
EPR measurements were performed in 50 μL capillary tubes at room temperature using a Bruker ER-200 X-band EPR spectrometer.
The relative amplitudes of the ascorbyl radical signal, which can be correlated to the concentration of ascorbyl radical present in the solution, were measured (Table 2).

The nature of series [3]: Mineral solubility at conditions close to physiological. As to conditions: one hour at pH 1-1.2, then one hour at pH 7-7.2; supernatant after centrifugation. The protocol: Two forms of zinc, copper, and iron were tested for solubility at conditions close to physiological. […] Samples, in an amount equivalent to 20 tablets, were suspended in 20 mL of water. The pH was adjusted to 1-1.2 and maintained for one hour, simulating a gastric environment. After the first hour, the pH was adjusted to 7-7.2 and maintained for another hour, simulating an intestinal environment. The product was then centrifuged and the supernatant taken for analysis.

The nature of series [4]: Copper-mediated oxidation of Trolox (Fenton system, EPR).
Method: The one-electron oxidation of Trolox results in the formation of a phenoxyl radical that is readily detected by EPR. All EPR measurements were done in using a Bruker ER-200 X-band EPR spectrometer. Samples (50 μL) in capillary tubes (0.5 mm i.d.) were examined at room temperature.

Turning to `NCC(=O)[O-].NCC(=O)[O-].[Cu+2]` [Cu AAC], the “relative signal amplitude for DMPO/hydroxyl radical adduct” value in series [1] is listed as 100%.
`NCC(=O)[O-].NCC(=O)[O-].[Fe+2]` [FeAAC, iron(II) bis-glycinate]: the “stabilization (lifetime) of the ascorbyl radical” value in series [2] (compared with the iron sulfate) is recorded as “longer period of time”. For the same compound, the “relative amplitude of the ascorbyl radical signal” value (“relative amplitude” below) is 100% in series [2] (time 1.5 min); 74% in series [2] (time 3.5 min); 65% in series [2] (time 5.5 min); 47% in series [2] (time 10.0 min); 33% in series [2] (time 14.0 min); 19% in series [2] (time 20.0 min). In addition, in series [2] (time 28.0 min), the “relative amplitude” value amounted to 19%. The “relative signal amplitude for DMPO/hydroxyl radical adduct” value in series [1] is on record as 100%.
Turning to `O=S(=O)([O-])[O-].[Fe+2]` [FeSO4, iron(II) sulfate], the “relative amplitude” value is listed as 100% in series [2] (time 1.5 min); 76% in series [2] (time 3.5 min); 64% in series [2] (time 5.5 min); 24% in series [2] (time 10.0 min); 14% in series [2] (time 14.0 min); 10% in series [2] (time 20.0 min). Besides, the “relative amplitude” value in series [2] (time 28.0 min) was 5%.
As for `[O-2].[Zn+2]` [Zinc Inorganic Form, zinc oxide], the “percent of solubilized mineral” value in series [3] is recorded as 1.2%.
For the compound gluconate, the “EPR signal of the Trolox free radical, reduction compared to CuSO4” value in series [4] is reported as “about 15%”.
